One assay concerns the target T1, human CD38 (Homo sapiens, UniProt P28907).
T1 construct: purchased Bio-Techne GmbH AVI2404
T1 sequence (P28907 1-300): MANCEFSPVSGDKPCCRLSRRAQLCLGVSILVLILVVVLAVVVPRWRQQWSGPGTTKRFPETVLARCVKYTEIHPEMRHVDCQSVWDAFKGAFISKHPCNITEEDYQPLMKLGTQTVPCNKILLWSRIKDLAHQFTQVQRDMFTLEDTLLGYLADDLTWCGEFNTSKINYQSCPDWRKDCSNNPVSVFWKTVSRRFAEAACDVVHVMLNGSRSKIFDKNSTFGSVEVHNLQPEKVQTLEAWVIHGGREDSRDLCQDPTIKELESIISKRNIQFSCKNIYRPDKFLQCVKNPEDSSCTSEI
Kind of assay: NAD+ cyclase activity assay with human recombinant CD38 protein (ε-NAD fluorescence). Type of assay: biochemical. The settings on record: 1.9 nM human CD38, substrate ε-NAD, 30 min preincubation, fluorescence 300/410 nm. The method in brief:
(§1)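 Twelve-point threefold compound dilutions were given 30 min at room temperature with 0.6 nM mouse or 1.9 nM human CD38 before […] ε-NAD was added (pH 7.5 HEPES/sucrose/Tween buffer). The rate came from the linear-phase slope of ex 300/em 410 nm fluorescence against vehicle and no-CD38 controls.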

A further assay deals with T2, mouse CD38 (Mus musculus, UniProt P56528).
T2 construct: purchased Bio-Techne GmbH 4947-AC
T2 sequence (P56528 1-304): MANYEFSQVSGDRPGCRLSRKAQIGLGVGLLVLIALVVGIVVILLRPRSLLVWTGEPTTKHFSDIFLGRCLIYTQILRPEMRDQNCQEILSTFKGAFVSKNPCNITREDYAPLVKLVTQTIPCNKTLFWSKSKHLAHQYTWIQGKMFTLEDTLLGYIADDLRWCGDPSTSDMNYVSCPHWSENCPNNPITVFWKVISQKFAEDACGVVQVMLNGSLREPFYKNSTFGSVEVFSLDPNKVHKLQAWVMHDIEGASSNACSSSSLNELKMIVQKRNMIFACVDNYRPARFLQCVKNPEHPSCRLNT
Put plainly: NAD+ cyclase activity assay with mouse recombinant CD38 protein (ε-NAD fluorescence). Type of assay: biochemical. The settings on record: 0.6 nM mouse CD38, substrate ε-NAD, 30 min preincubation, fluorescence 300/410 nm. The method in brief:
as §1

The IC50 is the point on the concentration scale where inhibition reaches its midpoint.

A value given as a limit tells only on which side of the number the result lay.

For the compound `CC1(NC(=O)c2cc(F)c3c(c2)-c2cncn2CCO3)CCCCC1` [Compound 162A, 8-Fluoro-N-(1-methylcyclohexyl)-5,6-dihydrobenzo[f]imidazo[1,5-d][1,4]oxazepine-10-carboxamide], the values for the IC50 at human CD38 and at mouse CD38 were 30 to 100 nM and 10 to 100 nM, respectively.
As for `O=C(N[C@H]1CC[C@@H](OC2CC(F)(F)C2)CC1)c1cc(F)c2c(c1)-c1cncn1CCO2` [Compound 167A, N-((1s,4s)-4-(3,3-Difluorocyclobutoxy)cyclohexyl)-8-fluoro-5,6-dihydrobenzo[f]imidazo[1,5-d][1,4]oxazepine-10-carboxamide], the IC50 at human CD38 was 100 to 1000 nM; on mouse CD38, 10 to 100 nM.
With `COCCO[C@H]1CC[C@H](NC(=O)c2cc(OC)c3c(c2)-c2cncn2CCO3)CC1` [Compound 54A, 8-Methoxy-N-((1r,4r)-4-(2-methoxyethoxy)cyclohexyl)-5,6-dihydrobenzo[f]imidazo[1,5-d][1,4]oxazepine-10-carboxamide], the IC50 is under 30 nM at human CD38 and 1 to 10 nM on mouse CD38.
For `CC(C)(CO[C@H]1CC[C@H](NC(=O)c2ccc3c(c2)-c2cncn2CCO3)CC1)C(F)(F)F` [Compound 120A, N-((1r,4r)-4-(3,3,3-Trifluoro-2,2-dimethylpropoxy)cyclohexyl)-5,6-dihydrobenzo[f]imidazo[1,5-d][1,4]oxazepine-10-carboxamide], the IC50 on human CD38 is under 30 nM; at mouse CD38 it was 1 to 10 nM.
On to `O=C(N[C@H]1CC[C@@H](OCCCF)CC1)c1ccc2c(c1)-c1cncn1CCO2` [Compound 79A, N-((1s,4s)-4-(3-Fluoropropoxy)cyclohexyl)-5,6-dihydrobenzo[f]imidazo[1,5-d][1,4]oxazepine-10-carboxamide], for which the IC50 at human CD38 was in the range of 100 to 1000 nM; at mouse CD38, 10 to 100 nM.
In the case of `COCCO[C@H]1CC[C@H](NC(=O)c2ccc3c(n2)-n2cncc2CCO3)CC1` [Compound 70A, N-((1r,4r)-4-(2-Methoxyethoxy)cyclohexyl)-6,7-dihydroimidazo[1,5-d]pyrido[3,2-b][1,4]oxazepine-2-carboxamide], the IC50 at human CD38 is 100 to 1000 nM; at mouse CD38, 10 to 100 nM.
For the compound `O=C(N[C@@H]1CCCC(F)(F)C1)c1ccc2c(c1)-c1cncn1CCO2` [Compound 116A, (R)—N-(3,3-Difluorocyclohexyl)-5,6-dihydrobenzo[f]imidazo[1,5-d][1,4]oxazepine-10-carboxamide], the results for the IC50 on human CD38 and on mouse CD38 were under 30 nM and under 1 nM, respectively.
In the same order, the values of `O=C(NC1CCC(F)(F)C1)c1ccc2c(c1)-c1cncn1CCO2` (stereo not drawn) [Compound 66A, N-(3,3-Difluorocyclopentyl)-5,6-dihydrobenzo[f]imidazo[1,5-d][1,4]oxazepine-10-carboxamide] are under 30 nM and under 1 nM.
`CC(C)(F)CN[C@H]1CC[C@H](NC(=O)c2ccc3c(c2)-c2cncn2CCO3)CC1` [Compound 83A, N-((1r,4r)-4-((2-Fluoro-2-methylpropyl)amino)cyclohexyl)-5,6-dihydrobenzo[f]imidazo[1,5-d][1,4]oxazepine-10-carboxamide]: the results for the 50% inhibitory concentration (IC50) at human CD38 and on mouse CD38 were 100 to 1000 nM and 10 to 100 nM, respectively.
On to `O=C(N[C@H]1CC[C@H](OCCC(F)(F)F)CC1)c1ccc2c(c1)-c1cncn1CCO2` [Compound 90A, N-((1r,4r)-4-(3,3,3-Trifluoropropoxy)cyclohexyl)-5,6-dihydrobenzo[f]imidazo[1,5-d][1,4]oxazepine-10-carboxamide], for which the IC50 on human CD38 is under 30 nM; at mouse CD38, under 1 nM.
Taken in the same sequence, the figures for `O=C(N[C@H]1CC[C@H](OCC(F)(F)F)CC1)c1cc(F)c2c(c1)-c1cncn1CCO2` [Compound 155A, 8-Fluoro-N-((1r,4r)-4-(2,2,2-trifluoroethoxy)cyclohexyl)-5,6-dihydrobenzo[f]imidazo[1,5-d][1,4]oxazepine-10-carboxamide] were under 30 nM and under 1 nM.
In the same order, the values of `O=C(Nc1ccc2scnc2c1)c1ccc2c(c1)-c1cncn1CCO2` [Compound 7A, N-(Benzo[d]thiazol-5-yl)-5,6-dihydrobenzo[f]imidazo[1,5-d][1,4]oxazepine-10-carboxamide] are under 30 nM and 1 to 10 nM.
`O=C(Nc1cnc(OCC(F)(F)F)nc1)c1ccc2c(c1)-c1cncn1CCO2` [Compound 109A, N-(2-(2,2,2-Trifluoroethoxy)pyrimidin-5-yl)-5,6-dihydrobenzo[f]imidazo[1,5-d][1,4]oxazepine-10-carboxamide]: the IC50 was under 30 nM on human CD38 and 1 to 10 nM on mouse CD38.
As to `O=C(N[C@H]1CC[C@@H](OCCC(F)F)CC1)c1ccc2c(c1)-c1cncn1CCO2` [Compound 77A, N-((1s,4s)-4-(3,3-Difluoropropoxy)cyclohexyl)-5,6-dihydrobenzo[f]imidazo[1,5-d][1,4]oxazepine-10-carboxamide], the IC50 is under 30 nM on human CD38 and 1 to 10 nM at mouse CD38.
For the compound `COCCNC(=O)[C@H]1CC[C@H](NC(=O)c2ccc3c(c2)-c2cncn2CCO3)CC1` [Compound 59A, N-((1r,4r)-4-((2-Methoxyethyl)carbamoyl)cyclohexyl)-5,6-dihydrobenzo[f]imidazo[1,5-d][1,4]oxazepine-10-carboxamide], the half-maximal inhibitory concentration (IC50) on human CD38 is under 30 nM; at mouse CD38 it was 1 to 10 nM.
Taken in the same sequence, the figures for `O=C(N[C@H]1CC[C@@H](OCCC(F)(F)F)CC1)c1ccc2c(c1)-c1cncn1CCO2` [Compound 89A, N-((1s,4s)-4-(3,3,3-Trifluoropropoxy)cyclohexyl)-5,6-dihydrobenzo[f]imidazo[1,5-d][1,4]oxazepine-10-carboxamide] were 100 to 1000 nM and over 100 nM.
In the case of `O=C(N[C@H]1CCc2ccccc21)c1ccc2c(c1)-c1cncn1CCO2` [Compound 6A, (S)—N-(2,3-Dihydro-1H-inden-1-yl)-5,6-dihydrobenzo[f]imidazo[1,5-d][1,4]oxazepine-10-carboxamide], the IC50 at human CD38 is under 30 nM; on mouse CD38, 1 to 10 nM.
As to `O=C(Nc1ccc2c(n1)OCCO2)c1ccc2c(c1)-c1cncn1CCO2` [Compound 30A, N-(2,3-Dihydro-[1,4]dioxino[2,3-b]pyridin-6-yl)-5,6-dihydrobenzo[f]imidazo[1,5-d][1,4]oxazepine-10-carboxamide], the IC50 at human CD38 was under 30 nM; at mouse CD38, 1 to 10 nM.
For `CS(=O)(=O)N1Cc2ccc(NC(=O)c3ccc4c(c3)-c3cncn3CCO4)cc2C1` [Compound 25A, N-(2-(Methylsulfonyl)isoindolin-5-yl)-5,6-dihydrobenzo[f]imidazo[1,5-d][1,4]oxazepine-10-carboxamide], the figures for the IC50 on human CD38 and at mouse CD38 were under 30 nM and 1 to 10 nM, respectively.
As for `C[C@@H]1CCC[C@H](C)[C@@H]1NC(=O)c1cc(F)c2c(c1)-c1cncn1CCO2` [Compound 178A, N-(cis-2-cis-6-Dimethylcyclohexyl)-8-fluoro-5,6-dihydrobenzo[f]imidazo[1,5-d][1,4]oxazepine-10-carboxamide], the IC50 on human CD38 was under 30 nM; on mouse CD38, 1 to 10 nM.
Taken in the same sequence, the figures for `O=C(N[C@@H]1CCC(F)(F)C1)c1ccc2c(c1)-c1cncn1CCO2` [Compound 92A, (R)—N-(3,3-Difluorocyclopentyl)-5,6-dihydrobenzo[f]imidazo[1,5-d][1,4]oxazepine-10-carboxamide] were under 30 nM and 1 to 10 nM.

For the origin of these results see US20260138990A1, “TRICYCLIC FUSED IMIDAZOLE COMPOUNDS AS CD38 MODULATORS AND USES THEREOF” (AEOVIAN PHARMACEUTICALS, INC., priority 2023, published 2026).
